{"source": "paper PMC5218480", "about": "(PLoS ONE, 2017)", "system": "MV-4-11 cells", "assay": "Gene expression microarray analysis (Affymetrix PrimeView) and GSEA", "format": "cell-based, human", "set-up": "RFU PODN (11730768_x_at) / Fold change /veh PODN (11730768_x_at) / RFU LINC00158 (11744669_a_at) / Fold change /veh LINC00158 (11744669_a_at) / RFU DUSP10 (11751237_a_at) / Fold change /veh DUSP10 (11751237_a_at) / RFU ID3 (11757404_x_at) / Fold change /veh ID3 (11757404_x_at) / RFU PLEKHG5 (11737974_s_at) / Fold change /veh PLEKHG5 (11737974_s_at) / RFU LRRC4B (11730491_at) / Fold change /veh LRRC4B (11730491_at) / RFU GIMAP4 (11747438_a_at) / Fold change /veh GIMAP4 (11747438_a_at) / RFU KRT8 (11758183_x_at) / Fold change /veh KRT8 (11758183_x_at) / RFU CNN1 (11734310_a_at) / Fold change /veh CNN1 (11734310_a_at) / RFU VPS37D (11726825_at) / Fold change /veh VPS37D (11726825_at) / RFU C10orf10 (11716522_x_at) / Fold change /veh C10orf10 (11716522_x_at) / RFU KIR2DL2 /// KIR2DL4 /// KIR2DL5A /// KIR2DL5B /// KIR2DS1 /// KIR2DS2 /// KIR2DS3 /// KIR2DS4 /// KIR3DL3 /// KIR3DL3 /// KIR3DS1 (11738374_at) / Fold change /veh KIR2DL2 /// KIR2DL4 /// KIR2DL5A /// KIR2DL5B /// KIR2DS1 /// KIR2DS2 /// KIR2DS3 /// KIR2DS4 /// KIR3DL3 /// KIR3DL3 /// KIR3DS1 (11738374_at) / RFU C1QL1 (11718748_at) / Fold change /veh C1QL1 (11718748_at) / RFU TMPRSS4 (11747572_a_at) / Fold change /veh TMPRSS4 (11747572_a_at) / RFU HAMP (11756126_x_at) / Fold change /veh HAMP (11756126_x_at) / RFU RNFT2 (11725882_a_at) / Fold change /veh RNFT2 (11725882_a_at) / RFU NR4A2 (11747474_a_at) / Fold change /veh NR4A2 (11747474_a_at) / RFU ABCC12 (11746883_a_at) / Fold change /veh ABCC12 (11746883_a_at) / RFU TMEM136 (11760407_x_at) / Fold change /veh TMEM136 (11760407_x_at) / RFU CLDN22 /// WWC2 (11732394_at) / Fold change /veh CLDN22 /// WWC2 (11732394_at) / RFU HLA-DPB1 (11760878_x_at) / Fold change /veh HLA-DPB1 (11760878_x_at) / RFU SPINT1 (11716480_a_at) / Fold change /veh SPINT1 (11716480_a_at) / RFU GAP43 (11754022_s_at) / Fold change /veh GAP43 (11754022_s_at) / RFU A4GNT (11735810_at) / Fold change /veh A4GNT (11735810_at) / RFU PRB3 (11715151_x_at) / Fold change /veh PRB3 (11715151_x_at) / RFU TUBB4B (11761932_at) / Fold change /veh TUBB4B (11761932_at) / RFU CAPN14 (11732068_a_at) / Fold change /veh CAPN14 (11732068_a_at) / RFU TMCC2 (11721928_a_at) / Fold change /veh TMCC2 (11721928_a_at) / RFU IRGQ (11745062_a_at) / Fold change /veh IRGQ (11745062_a_at) / RFU FAM174B (11720279_a_at) / Fold change /veh FAM174B (11720279_a_at) / RFU TMPRSS4 (11748680_a_at) / Fold change /veh TMPRSS4 (11748680_a_at) / RFU FAM212B (11763350_a_at) / Fold change /veh FAM212B (11763350_a_at) / RFU PLEKHG5 (11743358_a_at) / Fold change /veh PLEKHG5 (11743358_a_at) / RFU ZSCAN30 (11745921_a_at) / Fold change /veh ZSCAN30 (11745921_a_at) / RFU CMKLR1 (11741424_a_at) / Fold change /veh CMKLR1 (11741424_a_at) / RFU LOC101060620 /// MAPK8IP1 (11723275_at) / Fold change /veh LOC101060620 /// MAPK8IP1 (11723275_at) / RFU SPTSSB (11747773_x_at) / Fold change /veh SPTSSB (11747773_x_at) / RFU PRSS12 (11739890_at) / Fold change /veh PRSS12 (11739890_at) / RFU BIN1 (11741810_x_at) / Fold change /veh BIN1 (11741810_x_at) / RFU WNT11 (11732464_a_at) / Fold change /veh WNT11 (11732464_a_at) / RFU C10orf10 (11716521_a_at) / Fold change /veh C10orf10 (11716521_a_at) / RFU C5orf56 (11738089_at) / Fold change /veh C5orf56 (11738089_at) / RFU CYB561 (11721691_x_at) / Fold change /veh CYB561 (11721691_x_at) / RFU ANKRD19P (11752326_a_at) / Fold change /veh ANKRD19P (11752326_a_at) / RFU OR2T12 /// OR2T33 /// OR2T8 (11738714_s_at) / Fold change /veh OR2T12 /// OR2T33 /// OR2T8 (11738714_s_at) / RFU VCAN (11748164_a_at) / Fold change /veh VCAN (11748164_a_at) / RFU JSRP1 (11732532_at) / Fold change /veh JSRP1 (11732532_at) / RFU KRTAP10-11 (11738290_x_at) / Fold change /veh KRTAP10-11 (11738290_x_at) / RFU MYO3A (11730013_a_at) / Fold change /veh MYO3A (11730013_a_at) / RFU EBF3 (11725865_a_at) / Fold change /veh EBF3 (11725865_a_at) / RFU CAMK2N1 (11719241_x_at) / Fold change /veh CAMK2N1 (11719241_x_at) / RFU C5orf56 (11738088_a_at) / Fold change /veh C5orf56 (11738088_a_at) / RFU OLFML3 (11715873_a_at) / Fold change /veh OLFML3 (11715873_a_at) / RFU LOC100653217 /// NTM (11731650_a_at) / Fold change /veh LOC100653217 /// NTM (11731650_a_at) / RFU MAPK11 (11762145_a_at) / Fold change /veh MAPK11 (11762145_a_at) / RFU FIZ1 (11724087_x_at) / Fold change /veh FIZ1 (11724087_x_at) / RFU OASL (11726364_x_at) / Fold change /veh OASL (11726364_x_at) / RFU SOX15 (11748057_x_at) / Fold change /veh SOX15 (11748057_x_at) / RFU CD79A (11719716_a_at) / Fold change /veh CD79A (11719716_a_at) / RFU HIST1H1D (11736915_at) / Fold change /veh HIST1H1D (11736915_at) / RFU CASKIN2 (11723855_a_at) / Fold change /veh CASKIN2 (11723855_a_at) / RFU LOC730098 (11760151_x_at) / Fold change /veh LOC730098 (11760151_x_at) / RFU OR4N2 (11742367_at) / Fold change /veh OR4N2 (11742367_at) / RFU PRRT2 (11749266_a_at) / Fold change /veh PRRT2 (11749266_a_at) / RFU SNX32 (11753110_a_at) / Fold change /veh SNX32 (11753110_a_at) / RFU CDHR5 (11726645_a_at) / Fold change /veh CDHR5 (11726645_a_at) / RFU RCAN1 (11760418_a_at) / Fold change /veh RCAN1 (11760418_a_at) / RFU FAM167A (11723789_a_at) / Fold change /veh FAM167A (11723789_a_at) / RFU FAM26E (11764081_at) / Fold change /veh FAM26E (11764081_at) / RFU ISYNA1 (11749810_s_at) / Fold change /veh ISYNA1 (11749810_s_at) / RFU ACY1 (11761880_at) / Fold change /veh ACY1 (11761880_at) / RFU 11764098_at / Fold change /veh 11764098_at / RFU SAMD14 (11745864_x_at) / Fold change /veh SAMD14 (11745864_x_at) / RFU NPB (11741838_a_at) / Fold change /veh NPB (11741838_a_at) / RFU TMPRSS6 (11731388_a_at) / Fold change /veh TMPRSS6 (11731388_a_at) / RFU KRTAP10-2 (11738614_at) / Fold change /veh KRTAP10-2 (11738614_at) / RFU ARHGAP8 /// PRR5-ARHGAP8 (11727945_x_at) / Fold change /veh ARHGAP8 /// PRR5-ARHGAP8 (11727945_x_at) / RFU KRTAP5-7 /// NADSYN1 (11734609_at) / Fold change /veh KRTAP5-7 /// NADSYN1 (11734609_at) / RFU RASL12 (11751679_a_at) / Fold change /veh RASL12 (11751679_a_at) / RFU CDKN2B (11736163_a_at) / Fold change /veh CDKN2B (11736163_a_at) / RFU PRF1 (11729649_at) / Fold change /veh PRF1 (11729649_at) / RFU, ZNF638 /// ZNF638-IT1 / Fold change vs veh, ZNF638 /// ZNF638-IT1 / RFU, PANK3 / Fold change vs veh, PANK3 / RFU, SH3YL1 / Fold change vs veh, SH3YL1 / RFU, ZEB2 / Fold change vs veh, ZEB2 / RFU, NRIP1 / Fold change vs veh, NRIP1 / RFU, PTTG1IP / Fold change vs veh, PTTG1IP / RFU, CAPN2 / Fold change vs veh, CAPN2 / RFU, MED14 / Fold change vs veh, MED14 / RFU, SNORA58 / Fold change vs veh, SNORA58 / RFU, C1orf63 / Fold change vs veh, C1orf63 / RFU, LRRFIP1 / Fold change vs veh, LRRFIP1 / RFU, NDUFAF7 / Fold change vs veh, NDUFAF7 / RFU, SLC12A2 / Fold change vs veh, SLC12A2 / RFU, IBTK / Fold change vs veh, IBTK / RFU, ESF1 / Fold change vs veh, ESF1 / Fold change vs veh, TMEM50B / RFU, TAOK1 / Fold change vs veh, TAOK1 / RFU, ACBD3 / Fold change vs veh, ACBD3 / RFU, TMA16 / Fold change vs veh, TMA16 / RFU, RWDD3 / Fold change vs veh, RWDD3 / RFU, BCAT1 / Fold change vs veh, BCAT1 / RFU, EDEM3 / Fold change vs veh, EDEM3 / RFU, TMEM33 / Fold change vs veh, TMEM33 / RFU, WDR75 / Fold change vs veh, WDR75 / RFU, AHCTF1 / Fold change vs veh, AHCTF1 / RFU, TFRC / Fold change vs veh, TFRC / RFU, ZDHHC17 / Fold change vs veh, ZDHHC17 / RFU, NOM1 / Fold change vs veh, NOM1 / RFU, ARL8B / Fold change vs veh, ARL8B / RFU, ZBTB11 / Fold change vs veh, ZBTB11 / RFU, TAMM41 / Fold change vs veh, TAMM41 / RFU, KIAA1704 /// LOC100996395 / Fold change vs veh, KIAA1704 /// LOC100996395 / RFU, ING1 / Fold change vs veh, ING1 / RFU, TRMT61B / Fold change vs veh, TRMT61B / RFU, FUBP3 / Fold change vs veh, FUBP3 / RFU, TP53 / Fold change vs veh, TP53 / RFU, TNKS2 / Fold change vs veh, TNKS2 / RFU, ZFP14 / Fold change vs veh, ZFP14 / RFU, ACTR2 / Fold change vs veh, ACTR2 / RFU, PPP3R1 / Fold change vs veh, PPP3R1 / RFU, PIK3R1 / Fold change vs veh, PIK3R1 / RFU, HNRNPA1 / Fold change vs veh, HNRNPA1 / RFU, RNF170 / Fold change vs veh, RNF170 / RFU, ZNF28 / Fold change vs veh, ZNF28 / RFU, RNGTT / Fold change vs veh, RNGTT / RFU, OGT / Fold change vs veh, OGT / RFU, BRD1 / Fold change vs veh, BRD1 / RFU, MARS / Fold change vs veh, MARS / RFU, ZNF655 / Fold change vs veh, ZNF655 / RFU, FAHD1 / Fold change vs veh, FAHD1 / RFU, BDP1 / Fold change vs veh, BDP1 / RFU, LRRCC1 / Fold change vs veh, LRRCC1 / RFU, ARID1A / Fold change vs veh, ARID1A / RFU, ZNF146 / Fold change vs veh, ZNF146 / RFU, ZNF330 / Fold change vs veh, ZNF330 / RFU, GPN3 / Fold change vs veh, GPN3 / RFU, C9orf123 / Fold change vs veh, C9orf123 / RFU, N4BP2L2 / Fold change vs veh, N4BP2L2 / RFU, ARFIP1 / Fold change vs veh, ARFIP1 / RFU, FAM179B / Fold change vs veh, FAM179B / RFU, BCL10 / Fold change vs veh, BCL10 / RFU, UHRF1BP1L / Fold change vs veh, UHRF1BP1L / RFU, BET1 / Fold change vs veh, BET1 / RFU, CNOT2 / Fold change vs veh, CNOT2 / RFU, ZNF268 / Fold change vs veh, ZNF268 / Fold change vs veh, ZNF507 / RFU, DGCR2 / Fold change vs veh, DGCR2 / RFU, WDSUB1 / Fold change vs veh, WDSUB1 / Fold change vs veh, HSP90B1 /// MIR3652 / RFU, ADSS / Fold change vs veh, ADSS / RFU, GK / Fold change vs veh, GK / RFU, ZNF148 / Fold change vs veh, ZNF148 / RFU, TAF9 / Fold change vs veh, TAF9 / RFU, SLC1A5 / Fold change vs veh, SLC1A5 / RFU, SLMO2 / Fold change vs veh, SLMO2 / RFU, ABCC4 / Fold change vs veh, ABCC4 / RFU, LOC101060439 /// RAP1B / Fold change vs veh, LOC101060439 /// RAP1B / RFU, RFX7 / Fold change vs veh, RFX7 / RFU, GTPBP10 / Fold change vs veh, GTPBP10 / RFU, CNEP1R1 / Fold change vs veh, CNEP1R1 / RFU, BIVM-ERCC5 /// ERCC5 / Fold change vs veh, BIVM-ERCC5 /// ERCC5 / RFU, ILF3 / Fold change vs veh, ILF3 / RFU 11762660_at / Fold change /veh 11762660_at / RFU VCAN (11757783_s_at) / Fold change /veh VCAN (11757783_s_at) / RFU DDX43 (11728927_at) / Fold change /veh DDX43 (11728927_at) / RFU KRT8 (11758188_x_at) / Fold change /veh KRT8 (11758188_x_at) / RFU NKD1 (11759106_at) / Fold change /veh NKD1 (11759106_at) / RFU SRD5A1 (11742802_a_at) / Fold change /veh SRD5A1 (11742802_a_at) / RFU TPSAB1 /// TPSB2 (11721975_s_at) / Fold change /veh TPSAB1 /// TPSB2 (11721975_s_at) / RFU GSTM3 (11746129_a_at) / Fold change /veh GSTM3 (11746129_a_at) / RFU IL23R (11737362_x_at) / Fold change /veh IL23R (11737362_x_at) / RFU TMEM51 (11727254_a_at) / Fold change /veh TMEM51 (11727254_a_at) / RFU PIWIL2 (11732686_x_at) / Fold change /veh PIWIL2 (11732686_x_at) / RFU ORM1 (11744905_x_at) / Fold change /veh ORM1 (11744905_x_at) / RFU CCDC152 (11743942_at) / Fold change /veh CCDC152 (11743942_at) / RFU ECM1 (11717891_a_at) / Fold change /veh ECM1 (11717891_a_at) / RFU IL23R (11748794_a_at) / Fold change /veh IL23R (11748794_a_at) / RFU TNFAIP8L3 (11732012_x_at) / Fold change /veh TNFAIP8L3 (11732012_x_at) / RFU MBOAT4 (11741988_at) / Fold change /veh MBOAT4 (11741988_at) / RFU 11764193_at / Fold change /veh 11764193_at / RFU TMEM53 (11763286_at) / Fold change /veh TMEM53 (11763286_at) / RFU MAGEB2 (11727129_at) / Fold change /veh MAGEB2 (11727129_at) / RFU TMEM200A (11744735_a_at) / Fold change /veh TMEM200A (11744735_a_at) / RFU CCDC152 (11751479_a_at) / Fold change /veh CCDC152 (11751479_a_at) / RFU FAM211A (11726209_a_at) / Fold change /veh FAM211A (11726209_a_at) / RFU RGS16 (11746705_a_at) / Fold change /veh RGS16 (11746705_a_at) / RFU VCAN (11755009_s_at) / Fold change /veh VCAN (11755009_s_at) / RFU RHOB (11743442_s_at) / Fold change /veh RHOB (11743442_s_at) / RFU RGS16 (11720943_a_at) / Fold change /veh RGS16 (11720943_a_at) / RFU RGS16 (11720944_at) / Fold change /veh RGS16 (11720944_at) / RFU, VPS4B / Fold change vs veh, VPS4B / RFU, CREB1 / Fold change vs veh, CREB1 / RFU, DNAJC13 / Fold change vs veh, DNAJC13 / RFU, GNAQ / Fold change vs veh, GNAQ / RFU, CDK5R1 / Fold change vs veh, CDK5R1 / RFU, ZRANB3 / Fold change vs veh, ZRANB3 / RFU, CUL4A / Fold change vs veh, CUL4A / RFU, CCNY / Fold change vs veh, CCNY / RFU, UFL1 / Fold change vs veh, UFL1 / RFU, COG3 / Fold change vs veh, COG3 / RFU, DIAPH2 / Fold change vs veh, DIAPH2 / RFU, SKA2 / Fold change vs veh, SKA2 / RFU, AFF3 / Fold change vs veh, AFF3 / RFU, LMF1 / Fold change vs veh, LMF1 / RFU, IPO11 / Fold change vs veh, IPO11 / RFU, DFFB / Fold change vs veh, DFFB / RFU, FOXP1 / Fold change vs veh, FOXP1 / RFU, CARD8 / Fold change vs veh, CARD8 / RFU, STRN3 / Fold change vs veh, STRN3 / RFU, ADK / Fold change vs veh, ADK / RFU, RASSF2 / Fold change vs veh, RASSF2 / RFU, WIPF1 / Fold change vs veh, WIPF1 / RFU, LARP1B / Fold change vs veh, LARP1B / RFU, RASA1 / Fold change vs veh, RASA1 / RFU, RB1 / Fold change vs veh, RB1 / RFU, PPFIA1 / Fold change vs veh, PPFIA1 / RFU, MAT2A / Fold change vs veh, MAT2A / RFU, CCT5 / Fold change vs veh, CCT5 / RFU, WDR92 / Fold change vs veh, WDR92 / RFU, CUX1 / Fold change vs veh, CUX1 / RFU, TTC7A / Fold change vs veh, TTC7A / RFU, TMEM135 / Fold change vs veh, TMEM135 / RFU, DEPTOR / Fold change vs veh, DEPTOR / RFU, CPM / Fold change vs veh, CPM / RFU, DNAJB6 / Fold change vs veh, DNAJB6 / RFU, CACNA2D3 / Fold change vs veh, CACNA2D3 / RFU, DTX4 / Fold change vs veh, DTX4 / RFU, TFCP2 / Fold change vs veh, TFCP2 / RFU, GMCL1 /// GMCL1P1 / Fold change vs veh, GMCL1 /// GMCL1P1 / RFU, AEBP2 / Fold change vs veh, AEBP2 / RFU, SNHG1 /// SNORD22 /// SNORD25 /// SNORD26 /// SNORD27 /// SNORD28 /// SNORD29 /// SNORD31 / Fold change vs veh, SNHG1 /// SNORD22 /// SNORD25 /// SNORD26 /// SNORD27 /// SNORD28 /// SNORD29 /// SNORD31 / Fold change (Aza/veh), C12orf56 (ProbeSet 11735607_a_at) / Fold change (ACY-1035/veh), C12orf56 (ProbeSet 11735607_a_at) / Fold change (Aza/veh), FGFR1OP (ProbeSet 11751329_s_at) / Fold change (ACY-1035/veh), FGFR1OP (ProbeSet 11751329_s_at) / Fold change (Aza/veh), VPS36 (ProbeSet 11739960_a_at) / Fold change (ACY-1035/veh), VPS36 (ProbeSet 11739960_a_at) / RFU SYPL1 (11715823_x_at) / Fold change /veh SYPL1 (11715823_x_at) / RFU IGFBP7 (11715501_s_at) / Fold change /veh IGFBP7 (11715501_s_at) / RFU REEP3 (11722064_at) / Fold change /veh REEP3 (11722064_at) / RFU IGLL1 (11728026_x_at) / Fold change /veh IGLL1 (11728026_x_at): dose or concentration left out as unconfirmed", "conditions": "ProbeSet 11758440_s_at; LIST B", "data": [{"smiles": "Nc1ccc(-c2cccs2)cc1NC(=O)c1ccc2c(c1)cc(C1CC1)n2CCN1CCOCC1", "note": "[ACY-1035]", "values": [{"measurement": "RFU, RFX7", "value": 47.76, "unit": "RFU"}]}]}
